Numbering of substitutions follows the chain as printed.
Legend:
Assay type in all cases: cell-based
human ABCG2 protein = target: T1, human ABCG2 protein (Homo sapiens, UniProt Q9UNQ0); experiment: Polyphenol accumulation in SB MDCKII-BCRP cells with/without Ko143, APB conjugate fluorescence (substrate verification); details: 20 µM compound; for transport substrate for the ABCG2 protein: 1 h, 37°C, with/without 10 µM Ko143, significantly higher fluorescence with Ko143; for transport capacity: relative difference between fluorescence values with/without 10 µM Ko143
T1 construct: host or cells: MDCKII (SB MDCKII-BCRP cell line)
T1 sequence (Q9UNQ0 1-655): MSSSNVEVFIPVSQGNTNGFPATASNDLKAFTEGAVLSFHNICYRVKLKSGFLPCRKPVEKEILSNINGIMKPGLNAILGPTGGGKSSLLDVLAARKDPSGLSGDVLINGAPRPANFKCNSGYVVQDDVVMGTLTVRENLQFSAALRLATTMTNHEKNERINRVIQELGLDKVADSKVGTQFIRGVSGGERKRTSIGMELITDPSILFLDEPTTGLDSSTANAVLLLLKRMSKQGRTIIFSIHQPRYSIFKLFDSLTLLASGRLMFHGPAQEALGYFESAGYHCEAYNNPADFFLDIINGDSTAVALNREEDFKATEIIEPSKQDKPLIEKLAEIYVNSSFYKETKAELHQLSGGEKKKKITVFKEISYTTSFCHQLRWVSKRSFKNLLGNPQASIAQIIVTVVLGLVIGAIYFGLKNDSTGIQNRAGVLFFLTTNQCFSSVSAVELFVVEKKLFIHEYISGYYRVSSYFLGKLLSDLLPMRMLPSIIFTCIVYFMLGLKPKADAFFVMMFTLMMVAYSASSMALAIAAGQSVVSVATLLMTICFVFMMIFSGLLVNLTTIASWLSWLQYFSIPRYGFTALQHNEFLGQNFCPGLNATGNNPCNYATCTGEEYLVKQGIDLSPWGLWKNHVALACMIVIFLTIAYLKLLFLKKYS
Source text: The results are shown on Fig. 1. […] The relative difference between the fluorescence values leads to the conclusion that transport capacity is the highest for compounds 9, 3 and 1 and the lowest for compounds 2 and 6.
On Figure 1 fluorescence of the conjugates of APB and polyphenolic compounds is shown for the cell lysates (mean ± the standard error of the mean, n=5; statistically significant differences at the significance level <0.05 are marked with * symbol).

ABCG2 wild-type = target: T2, ABCG2 wild-type (Homo sapiens, UniProt Q9UNQ0); experiment: Luteolin transport in transfected HeLa cells with/without Ko143, APB conjugate fluorescence; details: 10 µM luteolin, 0 or 10 µM Ko143, 1 h
T2 construct: expressed in transfected cells; host or cells: HeLa, transient transfection (FuGene HD), pcDNA6.2/V5 vector
T2 sequence (Q9UNQ0 1-655): T1 sequence (Q9UNQ0 1-655)
Procedure: (§1) A plasmid expression vector for the ABCG2 protein was prepared using standard molecular biology techniques. The vector was obtained by cloning of a sequence encoding human ABCG2 and (as an N-terminal fusion protein within the same open reading frame) a sequence encoding TagGFP2 fluorescent protein (obtained from the pTagGFP2-C plasmid produced by Evrogen, cat. no. FP191) into the pcDNA6.2/V5 plasmid. Subsequently, a series of expression vectors for sequential variants of the ABCG2 protein were prepared by performing site-directed mutagenesis in the codons coding particular amino acids in this sequence. For this purpose the Quickchange Lightning kit for site-directed mutagenesis manufactered by AgilentStratagene (cat. no. 210513) was used, in full compliance with the manufacturer's instructions. In this way, the vectors encoding the following sequential variants of the ABCG2 protein were obtained (letters denote the standard IUPAC codes for amino acid residues changed with regard to the wild-type sequence, the number denotes the position of the amino acid residue in the polypeptide chain from the N-terminus of the protein): R482G,R482K, K86M.
(§2) 72 hours before the experiment, the cells were chemically transfected with the above mentioned plasmids using the FuGene HD reagent (product from Promega, cat. no. E2311). The transfection mixture contained 150 µl of OptiMEM culture medium (product from Life Technologies, cat. no. 31985070), 3.3 µg of plasmid DNA and 9.9 µl of Fugene HD. The mixture was vortexed, incubated for 5 minutes and added to 2 ml of medium and the cells on the 6-well plate. 24 hours before the experiment, the cells were plated on a standard black 96-well polystyrene microplate with surface modified for cell culture (product from Thermo Scientific Nunc cat. no. 137101) with 50,000 cells per well in standard DMEM culture medium (product from LifeTechnologies cat. no. 32430) supplemented with 10% fetal bovine serum. […] The cells were then incubated for 1 h in a standard incubator for in vitro cell culture in temperature of 37°C. The incubation was followed by removing the medium and the cells were washed twice with portions of 50 µl of buffered saline (PBS, product from Life Technologies cat. no. 10010) in temperature of 4°C. Then the cells were lysed (solubilized) in 100 µl of PBS with the following additives: 0.5% (v/v) Triton X-100 surfactant (product from Sigma Aldrich, cat. no. T8787) and 0.25 mg/ml 2-aminoethyl-diphenylborinate (APB, CAS no. 208-366-5, product from Sigma Aldrich, cat. no. D9754). The compound APB was added to the PBS solution from a stock solution in DMSO with a concentration of 250 mg/ml permanently stored in temperature of -20°C. The cells were lysed by shaking the microplate in room temperature for 5 minutes.

ABCG2 K86M = target: T3, ABCG2 K86M (Homo sapiens, UniProt Q9UNQ0, K86M); experiment: as above; details: K86M variant in HeLa cells; 10 µM luteolin, 0 or 10 µM Ko143, 1 h
T3 construct: expressed in transfected cells; host or cells: HeLa, transient transfection (FuGene HD), pcDNA6.2/V5 vector
T3 sequence (Q9UNQ0 1-655 K86M): T1 sequence (Q9UNQ0 1-655) with K86M
Procedure: as §1, §2

ABCG2 R482G = target: T4, ABCG2 R482G (Homo sapiens, UniProt Q9UNQ0, R482G); experiment: as above; details: R482G variant in HeLa cells; 10 µM luteolin, 0 or 10 µM Ko143, 1 h
T4 construct: expressed in transfected cells; host or cells: HeLa, transient transfection (FuGene HD), pcDNA6.2/V5 vector
T4 sequence (Q9UNQ0 1-655 R482G): T1 sequence (Q9UNQ0 1-655) with R482G
Procedure: as §1, §2

ABCG2 R482K = target: T5, ABCG2 R482K (Homo sapiens, UniProt Q9UNQ0, R482K); experiment: as above; details: R482K variant in HeLa cells; 10 µM luteolin, 0 or 10 µM Ko143, 1 h
T5 construct: expressed in transfected cells; host or cells: HeLa, transient transfection (FuGene HD), pcDNA6.2/V5 vector
T5 sequence (Q9UNQ0 1-655 R482K): T1 sequence (Q9UNQ0 1-655) with R482K
Procedure: as §1, §2

Row | transport substrate for the ABCG2 protein (human ABCG2 protein) | transport capacity (human ABCG2 protein) | transport activity towards luteolin (ABCG2 wild-type) | transport activity towards luteolin (ABCG2 K86M) | transport activity towards luteolin (ABCG2 R482G) | Compound | transport activity towards luteolin (ABCG2 R482K)
1 | ABCG2 protein substrates | highest | – | – | – | COc1ccc(OC)c(-c2oc3ccccc3c(=O)c2O)c1 [Compound 9, 2',5'-dimethoxy-3-hydroxyflavone] | –
2 | ABCG2 protein substrates | highest | similar, maximum transport activity | did not show any transport activity | similar, maximum transport activity | O=c1cc(-c2ccc(O)c(O)c2)oc2cc(O)cc(O)c12 [Compound 3, luteolin] | slightly decreased in relation to the wild-type
3 | ABCG2 protein substrates | – | – | – | – | O=c1c(O)c(-c2ccc(O)c(O)c2)oc2cc(O)ccc12 [Compound 4, fisetin] | –
4 | ABCG2 protein substrates | lowest | – | – | – | COc1ccc2oc(-c3ccc(OC)c(OC)c3)c(O)c(=O)c2c1 [Compound 6, 6,3',4'-trimethoxy-3-hydroxyflavone] | –
5 | ABCG2 protein substrates | lowest | – | – | – | O=c1c(O)c(-c2ccc(O)cc2)oc2cc(O)cc(O)c12 [Compound 2, kaempferol] | –
6 | ABCG2 protein substrates | highest | – | – | – | O=c1c(O)c(-c2ccc(O)c(O)c2)oc2cc(O)cc(O)c12 [Compound 1, quercetin] | –

Reference: patent publication EP3117212B1, “METHOD OF STUDYING ABCG2 PROTEIN ACTIVITY AND USE OF 2-AMINOETHYL DIPHENYLBORINATE” (Uniwersytet Lodzki, priority 2014, dated 2015)
